Two compounds from US20240327787A1, “CULTURE MEDIUM, COATING MATRIX AND METHOD FOR EXPANDING MIDBRAIN DOPAMINERGIC PROGENITOR CELLS” (NUWACELL BIOTECHNOLOGIES CO., LTD., priority 2022, published 2024) can be followed below.

What all share (type): cell-based, human
Assay [1] concerns imDAPs. Put plainly: qRT-PCR analysis of imDAP-specific markers during expansion. The following applies: 3 μM CHIR99021 vs 0 and 1.25 μM; 5 days expansion. How it is done: 1. For qRT-PCR analysis of mRNA gene expression, RNA should be harvested from at least 2×10^6 cells.
2. Harvest cells, add 350 μl of buffer RLT+1% (vol/vol) β-mercaptoethanol to the well, transfer the lysate to a 1.5 ml tube, and put it immediately on ice.
3. Perform RNA extraction using the Tiangen Kit (DP430), and follow the manufacturer's protocol ‘Purification of total RNA from animal and human cells’.
4. When the RNA extraction was completed, determine the RNA concentration using a Nanodrop instrument.
5. Perform the first-strand cDNA synthesis reaction with lug of RNA using the HiScript™ II Q RT SuperMIX for qPCR (+gDNA wiper) Kit (Vazyme, #R223-01) for RT-qPCR. Follow the manufacturer's ‘First-Strand cDNA Synthesis’ protocol. This reaction would yield a 20μl product.
6. […]
8. Analyze the samples by running a quantitative PCR on the LightCycler 480 instrument using a 40× cycle two-step protocol with a 60° C., 60 sec annealing/elongation step and a 95° C., 30 sec denaturation step. […]
imDAPs were produced according to the method described in CN201910169525.0. […] When imDAPs reach 100% confluence (4-5 days), cells were passaged enzymatically with 1× TrypLE, centrifuged at 250 g for 5 minutes, counted and replaced on new VTN-coated plates (1 μg/cm^2) at a density of 1×10^5 cells/cm^2 in the expansion medium. imDAPs were continuously expanded for 6 passages. […]
(Real-time PCR tracks product formation cycle by cycle.)

The subject of assay [2] is imDAPs. The experiment in a line: imDAP maturation, cell morphology and adhesion (bright-field). Conditions: 1 μM IWR1 for at least 3 days vs without; VTN-coated; 1% HhPLT medium. How it is done: were produced according to the method described in CN201910169525.0, and expanded as described in Example 10. The expanded […] were seeded on VTN-coated (1 μg/cm^2) plates at a density of 5×10^5 cells/cm^2 (Day 0), and cultured in the maturation medium ([…]) supplemented with 1 μM IWR1. MM-P used in Example 11 contained the following components: NeurobasalTM medium, 1% (v/v) Glutamax, 0.5 mM Db-cAMP sodium salt, 200 μM ascorbic acid, 20 ng/ml BDNF, 20 ng/ml GDNF, 1 ng/ml TGF-β3, 10 μM DAPT, hPLT (0.5%, 1%, 2%). MM-H used in Example 11 contained the following components: NeurobasalTM medium, 1% (v/v) Glutamax, 0.5 mM Db-cAMP sodium salt, 200 μM ascorbic acid, 20 ng/ml BDNF, 20 ng/ml GDNF, 1 ng/ml TGF-β3, […], HhPLT (0.5%, 1%, 2%). MM-B used in Example 11 contained the following components: Neurobasal, 1% (v/v) Glutamax, 0.5 mM Db-cAMP sodium salt, 200 μM ascorbic acid, 20 ng/ml BDNF, 20 ng/ml GDNF, 1 ng/ml TGF-β 3, 10 μM DAPT, 2% (v/v) B27 (50×) (as control). The above HhPLT was produced from hPLT as follows. The hPLT was centrifuged at 3000 g for 30 min at 4° C. to obtain the supernatant, which was heated to 56° C. for 30 min. […] Cells were collected and counted by Vi-cell cytometer. The cells were analyzed by RT-qPCR for EN1, LMX1A, FOXA2, NURR1, SOX6 and TH gene expression. […]

Assay [3] has as its system imDAPs. Put plainly: qRT-PCR analysis of mDA maturation associated markers. The following applies: 1 μM IWR1 vs without IWR1; day 7. The method, then: 1. For qRT-PCR analysis of mRNA gene expression, RNA should be harvested from at least 2×10^6 cells. 2. Harvest cells, add 350 μl of buffer RLT+1% (vol/vol) β-mercaptoethanol to the well, transfer the lysate to a 1.5 ml tube, and put it immediately on ice. 3. Perform RNA extraction using the Tiangen Kit (DP430), and follow the manufacturer's protocol 'Purification of total RNA from animal and human cells'. 4. When the RNA extraction was completed, determine the RNA concentration using a Nanodrop instrument. 5. Perform the first-strand cDNA synthesis reaction with lug of RNA using the HiScriptTM II Q RT SuperMIX for qPCR (+gDNA wiper) Kit (Vazyme, #R223-01) for RT-qPCR. Follow the manufacturer's 'First-Strand cDNA Synthesis' protocol. This reaction would yield a 20μl product. 6. Dilute the 10 μl cDNA product in 80 μl of nuclease-free water. 7. […] Analyze the samples by running a quantitative PCR on the LightCycler 480 instrument using a 40× cycle two-step protocol with a 60° C., 60 sec annealing/elongation step and a 95° C., 30 sec denaturation step. […] Cells were collected and counted by Vi-cell cytometer. The cells were analyzed by RT-qPCR for EN1, LMX1A, FOXA2, NURR1, SOX6 and TH gene expression. […]

As for `Cc1cnc(-c2cnc(NCCNc3ccc(C#N)cn3)nc2-c2ccc(Cl)cc2Cl)[nH]1` [CHIR99021], the “mDAP marker expression (EN1, LMX1A, FOXA2), qRT-PCR (FIG. 1C)” value in the assay with imDAPs [1] is listed as “allowed better maintenance of mDAP marker expression”.
As for `O=C(Nc1cccc2cccnc12)c1ccc(N2C(=O)[C@@H]3[C@H](C2=O)[C@@H]2C=C[C@H]3C2)cc1` [IWR1], in the assay on imDAPs [2], the “cell morphology on day 7 during maturation (FIG. 7D)” value is on record as “showed more obvious neural fibers”. Moreover, the “expression of NURR1, SOX6 and TH, qRT-PCR (FIG. 7E)” value in the assay on imDAPs [3] was “increased”.
